The results in this text go back to patent US7109376B2, “Benzene and naphthylene derivatives and their use as UV screening agents” (DSM IP Assets B.V., priority 2001, dated 2006).

The conditions of series [1]: irradiated in high dilution with a Hg-lamp 150 W (Heraeus).
The conditions of series [2]: solvent Cétiol LC (Cocoyl cyprylate caprate).
For series [3] the following is noted: solvent Crodamol DA (diisopropyladipate).

`CCCCC=CC(C)c1cccc2nc(-c3ccc(-c4nc5cccc(C(C)C=CCCCC)c5o4)cc3)oc12` (stereo not shown) [Example 9, 1,4-bis-[2-(7-oct-3-en-2-yl-benzoxazol)-yl]-benzene]: in series [1], the photostability entry was “photostable”. In series [2], the “solubility in Cétiol LC” value came out at 1.02%.

As to `CC(C)(C)c1cc(CCC[Si](C)(C)O[Si](C)(C)C)c2oc(-c3ccc(-c4nc5cc(C(C)(C)C)cc(CCC[Si](C)(C)O[Si](C)(C)C)c5o4)cc3)nc2c1` [Example 2, 1,4-bis-[2-(5-tert.-butyl-7-{3-(1,1,3,3,3-pentamethyl-disiloxanyl)-1-propyl}-benzoxazol)-yl]-benzene], in series [1], the photostability result was “photostable”. Further, the “solubility in Cétiol LC” value in series [2] is recorded as 18%.

As to `C=CCc1cc(C(C)(C)C)cc2nc(-c3ccc(-c4nc5cc(C(C)(C)C)cc(CC=C)c5o4)cc3)oc12` [Example 1, 1,4-bis-[2-(5-tert.-butyl-7-allyl-benzoxazol)-yl]-benzene], the photostability entry in series [1] is “photostable”. Moreover, in series [2], the “solubility in Cétiol LC” value is listed as 1.1%.

For `CC(Cc1cccc2nc(-c3ccc(-c4nc5cccc(CC(C)C[Si](C)(C)O[Si](C)(C)C)c5o4)cc3)oc12)C[Si](C)(C)O[Si](C)(C)C` (stereo not shown) [Example 3, 1,4-bis-[2-(7-{3-(1,1,3,3,3-pentamethyl-disiloxanyl)-1-isobutyl}-benzoxazol)-yl]-benzene], the “solubility in Crodamol DA” value in series [3] amounted to 5.03%. In series [1], the photostability entry was “photostable”.

On to `CCCCCCC(C)c1cc(C(C)(C)C)cc2nc(-c3ccc(-c4nc5cc(C(C)(C)C)cc(C(C)CCCCCC)c5o4)cc3)oc12` (stereo not shown) [Example 11, 1,4-bis-[2-(5-tert.-butyl-7-oct-2-yl-benzoxazol)-yl]-benzene], for which the “mixability with conventional cosmetic solvents” value is given as “easily mixable”. The photostability result in series [1] is on record as “photostable”.

With `CC(Cc1cc(C(C)(C)C)cc2nc(-c3ccc(-c4nc5cc(C(C)(C)C)cc(CC(C)C[Si](C)(O[Si](C)(C)C)O[Si](C)(C)C)c5o4)cc3)oc12)C[Si](C)(O[Si](C)(C)C)O[Si](C)(C)C` (stereo not shown) [Example 5, 1,4-bis-[2-(5-tert.-butyl-7-{3-(1,3,3,3-tetramethyl-1-[(tri-methyl-silyl)-oxy]-disiloxanyl)-1-isobutyl}-benzoxazol)-yl]-benzene], in series [1], the photostability entry is reported as “photostable”. Further, the “solubility in Cétiol LC” value in series [2] was 12.3%.

For `CCCCC=CC(C)c1cc(C)cc2nc(-c3ccc(-c4nc5cc(C)cc(C(C)C=CCCCC)c5o4)cc3)oc12` (stereo not shown) [Example 6, 1,4-bis-[2-(5-methyl-7-oct-3-en-2-yl-benzoxazol)-yl]-benzene], in series [3], the “solubility in Crodamol DA” value was determined as 1.33%. Also, the photostability result in series [1] was “photostable”.

For the compound `CCCCC=CC(C)c1cc(C(C)(C)C)cc2nc(-c3ccc(-c4nc5cc(C(C)(C)C)cc(C(C)C=CCCCC)c5o4)cc3)oc12` (stereo not shown) [Example 8, 1,4-bis-[2-(5-tert.-butyl-7-oct-3-en-2-yl-benzoxazol)-yl]-benzene], the “mixability with conventional cosmetic solvents” value is “easily mixable”. In series [1], the photostability result was “photostable”.
